Experimental data taken from the supplement of paper PMC10307832.

Experiments:
Experiment in all cases: relative viability (nuclei count vs DMSO), 5 days (fraction); higher = more cells survive
CAP-232 + Lapatinib = compound: C[C@H]([C@@H](C(=O)N)NC(=O)[C@@H]1CSSC[C@@H](C(=O)N[C@H](C(=O)N[C@@H](C(=O)N[C@H](C(=O)N1)CCCCN)CC2=CNC3=CC=CC=C32)CC4=CC=C(C=C4)O)NC(=O)[C@@H](CC5=CC=CC=C5)N)O [CAP-232] + CS(=O)(=O)CCNCc1ccc(-c2ccc3ncnc(Nc4ccc(OCc5cccc(F)c5)c(Cl)c4)c3c2)o1 [Lapatinib] (partner 2 µM)
How it was run: (§1)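 The day after seeding in 1536-well plates, lung cancer cell lines were treated by pin tool with a single drug, or with a fixed anchor-drug dose together with five library-drug doses (not always all listed) in √10 steps. After 5 days, a combined fix-and-stain solution (final 0.05% Triton X-100, 1% formaldehyde, 1 ug/ml Hoechst) was added. Nuclei counted on 4× images gave relative viability as treated counts over vehicle counts, reported as the median of duplicate plates.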

CAP-232 + AZD7762 = compound: C[C@H]([C@@H](C(=O)N)NC(=O)[C@@H]1CSSC[C@@H](C(=O)N[C@H](C(=O)N[C@@H](C(=O)N[C@H](C(=O)N1)CCCCN)CC2=CNC3=CC=CC=C32)CC4=CC=C(C=C4)O)NC(=O)[C@@H](CC5=CC=CC=C5)N)O [CAP-232] + NC(=O)Nc1cc(-c2cccc(F)c2)sc1C(=O)N[C@H]1CCCNC1 [AZD7762] (partner 0.2 µM)
How it was run: as §1

CAP-232 + Alpelisib = compound: C[C@H]([C@@H](C(=O)N)NC(=O)[C@@H]1CSSC[C@@H](C(=O)N[C@H](C(=O)N[C@@H](C(=O)N[C@H](C(=O)N1)CCCCN)CC2=CNC3=CC=CC=C32)CC4=CC=C(C=C4)O)NC(=O)[C@@H](CC5=CC=CC=C5)N)O [CAP-232] + Cc1nc(NC(=O)N2CCC[C@H]2C(N)=O)sc1-c1ccnc(C(C)(C)C(F)(F)F)c1 [Alpelisib] (partner 2 µM)
How it was run: as §1

CAP-232 + Phenformin = compound: C[C@H]([C@@H](C(=O)N)NC(=O)[C@@H]1CSSC[C@@H](C(=O)N[C@H](C(=O)N[C@@H](C(=O)N[C@H](C(=O)N1)CCCCN)CC2=CNC3=CC=CC=C32)CC4=CC=C(C=C4)O)NC(=O)[C@@H](CC5=CC=CC=C5)N)O [CAP-232] + N=C(N)NC(=N)NCCc1ccccc1 [Phenformin] (partner 250 µM)
How it was run: as §1

CAP-232 + Dasatinib = compound: C[C@H]([C@@H](C(=O)N)NC(=O)[C@@H]1CSSC[C@@H](C(=O)N[C@H](C(=O)N[C@@H](C(=O)N[C@H](C(=O)N1)CCCCN)CC2=CNC3=CC=CC=C32)CC4=CC=C(C=C4)O)NC(=O)[C@@H](CC5=CC=CC=C5)N)O [CAP-232] + Cc1nc(Nc2ncc(C(=O)Nc3c(C)cccc3Cl)s2)cc(N2CCN(CCO)CC2)n1 [Dasatinib] (partner 0.075 µM)
How it was run: as §1

Cell Line | relative viability (CAP-232 + Lapatinib; first compound 0.4 µM) | relative viability (CAP-232 + Lapatinib; first compound 1.265 µM) | relative viability (CAP-232 + Lapatinib; first compound 4 µM) | relative viability (CAP-232 + Lapatinib; first compound 12.65 µM) | relative viability (CAP-232 + AZD7762; first compound 0.4 µM) | relative viability (CAP-232 + AZD7762; first compound 1.265 µM) | relative viability (CAP-232 + AZD7762; first compound 4 µM) | relative viability (CAP-232 + AZD7762; first compound 12.65 µM) | relative viability (CAP-232 + Alpelisib; first compound 0.4 µM) | relative viability (CAP-232 + Alpelisib; first compound 1.265 µM) | relative viability (CAP-232 + Alpelisib; first compound 4 µM) | relative viability (CAP-232 + Alpelisib; first compound 12.65 µM) | relative viability (CAP-232 + Phenformin; first compound 0.4 µM) | relative viability (CAP-232 + Phenformin; first compound 1.265 µM) | relative viability (CAP-232 + Phenformin; first compound 4 µM) | relative viability (CAP-232 + Phenformin; first compound 12.65 µM) | relative viability (CAP-232 + Dasatinib; first compound 0.4 µM) | relative viability (CAP-232 + Dasatinib; first compound 1.265 µM) | relative viability (CAP-232 + Dasatinib; first compound 4 µM) | relative viability (CAP-232 + Dasatinib; first compound 12.65 µM)
NCI-H1975 | 1.03 | 0.867 | 1.11 | 0.583 | 0.892 | 0.711 | 0.712 | 0.442 | 0.734 | 0.579 | 0.704 | 0.434 | 0.449 | 0.413 | 0.437 | 0.332 | 0.513 | 0.319 | 0.468 | 0.21
NCI-H1993 | 0.877 | 0.791 | 0.915 | 0.673 | 0.756 | 0.702 | 0.694 | 0.633 | 0.605 | 0.674 | 0.719 | 0.633 | 0.497 | 0.541 | 0.545 | 0.564 | 0.619 | 0.539 | 0.682 | 0.558
NCI-H2085 | 0.833 | 0.789 | 0.732 | 0.878 | 1.04 | 1.03 | 0.988 | 0.964 | 1.02 | 0.886 | 0.902 | 1.16 | 0.713 | 0.703 | 0.741 | 0.688 | 0.232 | 0.193 | 0.223 | 0.19
NCI-H2087 | 1.08 | 1.02 | 1.03 | 0.519 | 1.32 | 1.4 | 1.59 | 0.684 | 0.983 | 1.17 | 0.929 | 0.841 | 0.435 | 0.419 | 0.436 | 0.321 | 0.681 | 0.969 | 0.757 | 0.737
NCI-H2126 | 0.762 | 0.694 | 0.895 | 0.797 | 1.11 | 1.01 | 1.18 | 1.01 | 0.751 | 0.742 | 0.8 | 0.73 | 0.525 | 0.5 | 0.51 | 0.56 | 0.639 | 0.585 | 0.704 | 0.571
NCI-H2170 | 0.274 | 0.281 | 0.255 | 0.272 | 0.915 | 0.907 | 0.906 | 0.846 | 0.81 | 0.865 | 0.831 | 0.76 | 0.409 | 0.422 | 0.438 | 0.42 | 0.684 | 0.558 | 0.557 | 0.58
NCI-H2347 | 0.944 | 0.898 | 0.931 | 0.864 | 0.733 | 0.746 | 0.726 | 0.662 | 0.966 | 0.993 | 0.986 | 0.995 | 0.281 | 0.305 | 0.427 | 0.296 | 0.28 | 0.285 | 0.342 | 0.292
NCI-H2405 | 1.03 | 0.99 | 1.12 | 0.722 | 0.822 | 0.8 | 0.765 | 0.524 | 0.623 | 0.924 | 0.683 | 0.396 | 0.377 | 0.356 | 0.37 | 0.317 | 0.233 | 0.203 | 0.196 | 0.208
NCI-H3122 | 1 | 1.09 | 1 | 1.05 | 0.984 | 1.08 | 1.14 | 0.958 | 0.735 | 0.76 | 0.838 | 0.84 | 0.404 | 0.388 | 0.395 | 0.335 | 0.781 | 0.804 | 0.847 | 0.833
PC-3 [JPC-3] | 0.503 | 0.444 | 0.454 | 0.461 | 1.02 | 0.735 | 0.873 | 0.794 | 1.1 | 1.08 | 1.03 | 1.08 | 0.494 | 0.461 | 0.459 | 0.453 | 1.08 | 1.06 | 1.08 | 0.908
PC-14 | 0.34 | 0.31 | 0.409 | 0.262 | 0.522 | 0.297 | 0.334 | 0.24 | 1.06 | 0.911 | 1.14 | 0.926 | 0.577 | 0.56 | 0.659 | 0.386 | 0.211 | 0.256 | 0.253 | 0.129
RERF-LC-KJ | 0.96 | 0.859 | 1.03 | 0.861 | 1.01 | 1.03 | 0.997 | 0.914 | 0.951 | 0.693 | 0.833 | 0.816 | 0.493 | 0.4 | 0.388 | 0.315 | 0.695 | 0.871 | 0.735 | 0.27
